Data published in patent EP0497609B1, “Pyrimido-benzothiazine derivatives for the treatment of inflammation, allergy and cardiovascular disease” (PFIZER INC., priority 1991, dated 1992).

Legend:
Format in all cases: in vivo
mouse = assay: PAF (Platelet Activating Factor) lethality assay; conditions: for PAF lethality survival (%): Dose 50 mg/kg
Source text: (§1) The compounds of formulae (I) and (II) of this invention can be shown to inhibit lipoxygenase according to various testing methods. Such methods include the following: RPC (Rat Peritoneal Cavity resident cells) assay according to methods described in Jap. J. Inflammation 7:145-150 (1987), "Synthesis of leukotrienes by peritoneal macrophages"; PAF (Platelet Activating Factor) lethality assay according to methods described in Prostaglandisis 30(4):545-551 (1985); and y-RFE (yeast induced Rat Foot Edema) assay according to methods described in Biochem. Pharmacol. 36:547 (1987).
In the PAF lethality assay, the compound of Example 5, as shown in the Table above, gave a high (69%) survival percentage. The term "survival percentage" herein means the inhibitory efficacy to shock death of the mouse through lipoxygenase metabolites activated by dosing with PAF.

male ICR mice = assay: Acute toxicity after oral administration; conditions: 7 hours after oral administration at 600 mg/kg to male ICR mice
Experimental: Acute toxicity of the compound of Example 5 was investigated 7 hours after oral administration at 600 mg/kg to male ICR mice (Charles River Japan Inc., 5 weeks old, avg. body weight of 28 g).

rat foot = assay: y-RFE (yeast induced Rat Foot Edema) assay; conditions: Dose 60 mg/kg; rat foot edema induced by yeast suspension
Source text: as §1
Furthermore, in the y-RFE assay, the compound of Example 5, as shown in the Table above, gave a high (69%) edema inhibitory percentage. The term "edema inhibitory percentage" herein means the inhibitory efficacy to the swelling of inflammatory edema of the rat foot induced by the injection of yeast suspension.

Row | SMILES | PAF lethality survival (%) (mouse) | Acute toxicity (male ICR mice) | ED50 (mouse; Platelet, read-out: ED₅₀ value in the PAF lethality assay) [mg/kg] | y-RFE edema inhibitory (%) (rat foot)
1 | O=c1[nH]c2c(c(=O)[nH]1)Nc1ccccc1S2 [Example 1, 1,5-Dihydro-2H-pyrimido[4,5-b][1,4]benzothiazine-2,4(3H)-dione] | 56 | – | – | –
2 | Cn1c(=O)nc2sc3ccccc3nc-2c1=O [Example 5, 3-Methyl-2H-pyrimido[4,5-b][1,4]benzothiazine-2,4(3H)-dione] | 69 | did not show any acute toxic symptoms | 51 | 69
3 | Cn1c(=O)[nH]c2c(c1=O)Nc1ccccc1S2 [Example 2, 1,5-Dihydro-3-methyl-2H-pyrimido[4,5-b][1,4]benzothiazine-2,4(3H)-dione] | 30 | – | – | –
